Measured values from PubChem BioAssay AID2124 (Sanford-Burnham Center for Chemical Genomics, 2009).
Inconclusive results are not listed. Active and inactive are the calls of the source. The rule behind the calls is not given here; tested in MIN6 cells.

Assay: cell-permeable autofluorescent compounds in GFP channel, dose response, artefact control, imaging, high-content imaging (AID 2124);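 note: cells exposed to compound for 48 hours before fixing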
Conditions: cells, GFP-channel autofluorescence, high-content imaging, at 10 µM; for z-score: stronger effect = higher value

Row | SMILES | z-score | cell count [cells]
1 | COc1ccc(N=C2NC(=O)S/C2=C\c2ccc(N(C)C)cc2)cc1 | -0.25 (inactive) | 2870
2 | Cc1ccccc1SCc1noc(C(=O)NC(C)C)c1C(=O)O | -0.39 (inactive) | 3150
3 | Cc1cc(C)n(C(=O)CCC2COc3ccccc3O2)n1 (stereo not drawn) | -0.25 (inactive) | 2940
4 | Cc1ccnc(N2C(=O)c3cccc4c([N+](=O)[O-])ccc(c34)C2=O)c1 | 0.09 | 350
5 | O=C(Nc1ccc(N2CCCCC2)cc1)c1cccnc1 | -0.39 (inactive) | 3060
6 | CC(/C=N/NC(=O)c1ccncc1)=C\c1ccc(C(C)C)cc1 | -0.33 (inactive) | 2700
7 | CN1/C(=C\C=C2C(=O)NC(=S)NC2=O)C(C)(C)c2ccccc21 | 3.61 | 2700
8 | CC(C)(C)C(=O)/C=c1\s/c(=C\c2ccc(-c3ccc([N+](=O)[O-])cc3)o2)c(=O)n1CC(=O)NC(N)=O | 4.23 | 3110
9 | CC(=O)Nc1sc(/C(C#N)=C\c2cccc(Cl)c2)nc1-c1ccc(C)cc1 | 1.12 | 3000
10 | Nc1c(C(=O)N/N=C/c2ccccc2Cl)oc2nc(-c3ccccc3)cc(-c3ccco3)c12 | -0.27 (inactive) | 2970
11 | N#Cc1c(C(F)(F)F)cc(-c2ccccc2)nc1SCc1nc(N)nc(N2CCOCC2)n1 | 0.32 | 3070
12 | CC(C)(C)c1cc(C(=O)NCc2cccnc2)ccn1 | -0.33 (inactive) | 3450
13 | Cc1ccc(C2(C(F)(F)F)N=C3Sc4cc(C)ccc4N3C(=O)N2)cc1 (stereo not drawn) | -0.39 (inactive) | 2940
14 | O=C(CSc1nc2ccc(Cl)cc2o1)NCc1ccc2c(c1)OCO2 | -0.33 (inactive) | 3140
15 | CCCNC(=O)Cn1c(=O)/c(=C\c2ccc(-c3ccc([N+](=O)[O-])cc3)o2)s/c1=C\C(=O)C(C)(C)C | 2.07 | 3100
16 | N#Cc1c2c(c(-n3cnc4ccccc43)n3c1nc1ccccc13)CCC2 | -0.25 (inactive) | 3100
17 | N#C/C(=C\c1ccc(-c2ccc(C(=O)O)cc2)o1)c1nc2ccccc2[nH]1 | -0.29 (inactive) | 3280
18 | CC(C)C1S/C(=N/N=C/c2ccco2)NC1=O (stereo not drawn) | -0.33 (inactive) | 3160
19 | C=CCNC(=O)/C(=C\c1ccc(Br)cc1)NC(=O)c1ccccc1OC | -0.39 (inactive) | 3390
20 | CCN1/C(=C/C=C/c2oc3ccc4ccccc4c3[n+]2CC)Oc2ccc3ccccc3c21 | 1.7 | 330
21 | CCOc1ccc(-c2c(C#N)c(N)nc3sc(C(=O)c4ccccc4)c(N)c23)cc1 | 0.98 | 3090
22 | CCCCCCc1cc2cc(-c3nnc(-c4ccccc4O)o3)c(=O)oc2cc1O | -0.21 (inactive) | 2760
23 | COCCNC(=S)N/N=C(\C)c1ccc2cc(OC)ccc2c1 | -0.33 (inactive) | 2790
24 | Fc1ccc(C2CC(c3ccco3)=NN2c2ccccc2)cc1 (stereo not drawn) | -0.33 (inactive) | 2910
25 | C=CCNC(=O)C1CCN(S(=O)(=O)c2ccc(Br)cc2)CC1 | -0.33 (inactive) | 3230
26 | CCN(CC)c1ccc2cc(C#N)c(=O)oc2c1 | -0.32 (inactive) | 3390
27 | COC(=O)C1=C(N)n2c(s/c(=C\c3cccnc3)c2=O)=C(C(=O)OC)C1c1cccnc1 (stereo not drawn) | -0.25 (inactive) | 2640

Row | SMILES | z-score | cell count [cells]
28 | CCN1CCN(C2=CC3=CC(=C(C#N)C#N)CCC3CC2)CC1 (stereo not drawn) | 1.63 | 3180
29 | Cc1cc(NC(=O)/C(C#N)=C/c2ccc(-c3ccc(SC(F)F)cc3)o2)n(-c2ccccc2)n1 | 0.3 | 2190
30 | CCCCN1C(=O)/C(=C/C=C2/CC(C)(C)CN2C)SC1=S | 0.43 | 2800
31 | O=[N+]([O-])c1ccc(N/N=C/c2sc(N3CCOCC3)nc2-c2ccccc2)c(S(=O)(=O)Nc2ccccc2Cl)c1 | 0.01 | 144
32 | Cc1ccn2c(NC3CCCCC3)c(C)nc2c1 | -0.39 (inactive) | 2990
33 | COc1ccc(C)cc1NC(=O)COC(C)=O | -0.33 (inactive) | 3030
34 | Cc1cc(/C=C2\SC(=S)NC2=O)c(C)n1C1CC1 | -0.3 (inactive) | 3040
35 | Cc1ccc(NC(=O)CCn2cccc2)cc1Cl | -0.33 (inactive) | 3190
36 | Cc1ccccc1C(=O)N1CCc2ccccc2C1 | -0.39 (inactive) | 3270
37 | CCOC(=O)CC1C(=O)NCCN1c1nc2c(C)cccn2c(=O)c1/C=C1\SC(=S)N(C(C)CC)C1=O (stereo not drawn) | 0.45 | 3100
38 | COCCN1CN(S(=O)(=O)c2ccccc2)c2nc3ccccc3nc21 | -0.38 (inactive) | 3380
39 | COc1cccc(/C=N/NC(=O)c2oc3nc(-c4ccccc4)cc(-c4ccco4)c3c2N)c1 | -0.32 (inactive) | 3030
40 | CCCCCCN1C=CC(=C/C=C(\C#N)C(=O)OCC)C=C1 | 0.43 | 3270
41 | O=C(/C=C/c1c[nH]c2ccccc12)c1c(O)n(CCc2ccccc2)c(=O)[nH]c1=O | 2.73 | 2920
42 | Cc1cccc(NC(=O)/C=C/c2ccc([N+](=O)[O-])s2)c1 | 0.41 | 244
43 | Cc1cc(C)cc(N=Cc2[nH]c3ccc(Br)c(Cl)c3c2O)c1 | 0.1 | 2820
44 | CN1/C(=C\C=C2/C(=O)Oc3ccccc3C2=O)C(C)(C)c2ccccc21 | 3.27 | 3310
45 | CN1C(=O)CC(N2CCN(Cc3ccc(Cl)cc3)CC2)C1=O (stereo not drawn) | -0.39 (inactive) | 2870
46 | CCCCC(=O)Nc1ccc2c(c1)nc1n2CCSC1 | -0.38 (inactive) | 2870
47 | COc1cc2c(cc1NC(=O)CN1CCN(S(=O)(=O)c3ccccc3F)CC1)oc1ccccc12 | -0.33 (inactive) | 3180
48 | COc1ccc(CC(=O)N2CCN(C)CC2)cc1 | -0.33 (inactive) | 3120
49 | CCCCN1C(=O)C2(NNc3ccccc3O2)c2ccccc21 (stereo not drawn) | -0.31 (inactive) | 2820
50 | O=[N+]([O-])c1ccc(N/N=C/c2c[nH]c3ccccc23)cc1 | 0.33 | 1200
51 | Cc1ccccc1-c1nnc(-c2ccc(Cl)cc2)o1 | -0.26 (inactive) | 2820
52 | COc1ccc(CN(CC2CCC(C(=O)O)CC2)C(=S)Nc2cccc(C)c2)cc1 (stereo not drawn) | -0.38 (inactive) | 3120
53 | CN(C)c1ccc(/C=C2\SC(=O)N(CC(O)Cn3c4ccccc4c4ccccc43)C2=O)cc1 (stereo not drawn) | -0.23 (inactive) | 3020
54 | Cc1ccc(C2CC(=O)NC(SCc3ccccc3)=C2C#N)o1 (stereo not drawn) | -0.33 (inactive) | 3270

Row | SMILES | z-score | cell count [cells]
55 | CCCc1cc(=O)[nH]c(SCC(=O)NCCCC(=O)OCC)n1 | -0.33 (inactive) | 3040
56 | Cc1nn(-c2c(Cl)cc(Cl)cc2Cl)c(=O)c2ccccc12 | -0.33 (inactive) | 3220
57 | COc1cccc(C(=O)Nc2ccccc2C(=O)N2CCCC2)c1 | -0.39 (inactive) | 3120
58 | CCn1c2ccccc2c2nnc(SCC(=O)Nc3cc(C)on3)nc21 | -0.33 (inactive) | 3100
59 | CN(C)c1ccc(C(=O)N/N=C/c2cc(Br)cc(Br)c2O)cc1 | -0.38 (inactive) | 2500
60 | C=CCSc1nnc(NC(=O)c2cccc(S(=O)(=O)N3CCOCC3)c2)s1 | -0.38 (inactive) | 2670
61 | N#C/C(=C/c1ccc(-c2ccc(S(N)(=O)=O)cc2)o1)c1nc2ccccc2s1 | 1.86 | 1680
62 | COC(=O)Cc1c(C)nc2nc(NCc3ccccc3OC)[nH]n2c1=O | -0.26 (inactive) | 3050
63 | Cc1noc(C)c1S(=O)(=O)N1CCC(C(=O)N2CCN(C3CCCC3)CC2)CC1 | -0.33 (inactive) | 2760
64 | Cc1cccc2sc(NNC(=O)c3ccc4c(c3)OCCO4)nc12 | -0.39 (inactive) | 3230
65 | CN(C)c1ccc(/C=N/NC(=O)CN(c2ccccc2Cl)S(C)(=O)=O)cc1Br | -0.39 (inactive) | 3330
66 | CCCCNC(=O)/C(C#N)=c1\s/c(=C\c2ccccc2OC(F)F)c(=O)n1CCCOC | -0.37 (inactive) | 3260
67 | O=C1S/C(=C/c2ccc(N3CCOCC3)o2)C(=O)N1Cc1c(F)cccc1Cl | 1.3 | 3280
68 | CCCC(=O)c1c(C)c2ccccc2n1C | -0.38 (inactive) | 3160
69 | N/C(=N\OC(=O)C1CCCCC1)c1cccc([N+](=O)[O-])c1 | -0.33 (inactive) | 3090
70 | CSc1c(C#N)c(N)nc2sc(C(=O)c3ccc(Cl)c(Cl)c3)c(N)c12 | -0.28 (inactive) | 2770
71 | Cn1c(C(=O)N2CCC(C(=O)N3CCN(Cc4ccc5c(c4)OCO5)CC3)CC2)cc2sccc21 | -0.39 (inactive) | 2820
72 | CC1(C)c2ccccc2N2CC(=O)NC21/C=C/c1ccco1 (stereo not drawn) | -0.33 (inactive) | 2980
73 | Cc1cccc(Oc2nccc(C(F)(F)F)c2C(=O)Nc2ccc(F)cc2F)c1 | -0.39 (inactive) | 3510
74 | CC(C)(C)c1ccc(OCC(=O)Nc2ccc3c4c(cccc24)C(=O)NC3=O)cc1 | -0.31 (inactive) | 2490
75 | Brc1ccc(Oc2nsnc2N2CCOCC2)cc1 | -0.34 (inactive) | 3270
76 | COc1ccc(OCC(=O)Nc2ccc(S(=O)(=O)Nc3cc(C)nc(C)n3)cc2)cc1 | -0.33 (inactive) | 3070
77 | CCCC1C2CN(C(C)C)CC=C2C(C#N)=C(N)C1(C#N)C#N (stereo not drawn) | 0.45 | 2800
78 | CC(Sc1ccccc1)C(=O)NN=C1CCCCCC1 (stereo not drawn) | -0.39 (inactive) | 2920
79 | COC(=O)c1sccc1NC(=O)c1cc(OC)c(OC)c(OC)c1 | -0.39 (inactive) | 3020
